Data reported in patent publication US20220347125A1, “ANTITUMOR AGENT AND COMPOUNDING AGENT” (Keio University, priority 2019, published 2022).
d = 2'-deoxy (DNA); r = 2'-OH (RNA)

Columns and labels:
A549, HCT116 and HSC4 = test: Cell viability, oxyfedrine with SSZ or BSO, statements for all three lines (Experimental Example 11); settings: 48 hours; for effect on cell survival rate: 400 μM sulfasalazine alone or 100 μM L-buthionine sulfoximine alone
Protocol: Alveolar basal epithelial adenocarcinoma cell line A549, colon adenocarcinoma cell line HCT116, and oral squamous carcinoma cell line HSC-4, all of which are resistant to sulfasalazine or L-buthionine-sulfoximine, were seeded in 96-well plates at 4000 cells/well, and the culture was started. RPMI was used for the A549 and DMEM was used for the HCT116 and HSC-4 as culture media. After 24 hours, each medium was replaced with a medium containing 50 or 100 μM oxyfedrine or an equal volume of DMSO, and 0 (no sulfasalazine and no L-buthionine sulfoximine) or 400 μM sulfasalazine or 100 μM L-buthionine sulfoximine, and the culture was continued for 48 hours. Then, the cells were assayed for cell viability using CellTiter-Glo (Promega), and a cell survival rate in each case was calculated taking the number of live cells in the control (DMSO added, and sulfasalazine and L-buthionine sulfoximine not added) as 100%.

[1] = system: SSZ-resistant tumor cells (HCT116 and HSC-4); test: Intracellular GSH levels, GSH-Glo Glutathione Assay (Experimental Example 12); assay type: cell-based; settings: BSO or OXY alone, or SSZ with OXY, after 48 hours
Protocol: SSZ-resistant tumor cells (HCT116 and HSC-4) were used and the cells were treated in a similar manner to that in Example 11, and the intracellular GSH levels were measured after 48 hours using a GSH-Glo Glutathione Assay Kit (Promega).

[2] = system: sulfasalazine-resistant tumor cells (HCT116 and HSC-4); test: Intracellular HNE accumulation, SSZ or BSO with OXY (Experimental Example 13); assay type: cell-based; settings: SSZ, BSO or OXY alone, or SSZ or BSO in combination with OXY
Protocol: (§1) As in Experimental Example 1, HSC-4 cells were cultured in a medium containing 50 μM dyclonine or an equal volume of DMSO and 0 μM (not added) or 400 μM sulfasalazine, and the treated cells were fixed with 4% PFA-PBS. Then, the cells were permeabilized with 0.2% Triton X100-PBS, followed by blocking with 3% BSA-PBS. Subsequently, fluorescent staining was performed using an anti-HNE antibody as the primary antibody and AlexaFluor 488-conjugated anti-mouse IgG antibody as the secondary antibody. As a positive control, cells incubated with 50 μM HNE for 30 min were used and stained using antibodies in a similar manner.
In this experimental example, sulfasalazine-resistant tumor cells (HCT116 and HSC-4) were used, and the cells were treated as in Experimental Example 6 and then observed under a fluorescence microscope.

A549 cells [3] = test: Cell viability, Nrf2 siRNA or ML385 with OXY and SSZ or BSO (Experimental Example 18); assay type: cell-based; settings: in addition to 400 μM SSZ and 50 μM OXY, 48 hours
Protocol: A549 cells were transfected with siRNA against the Nrf2 gene as in Example 17, or the medium was supplemented with ML385 that is an Nrf2 inhibitor. Cells were cultured for 48 hours in a medium containing 50 μM OXY, and 400 μM SSZ or 100 μM BSO, as in Example 11. Then, the cells were assayed for cell viability. As a control, the experiments were performed in a medium without any of the above. DMSO, however, was added appropriately to add a constant volume of DMSO in all cases.

ALDH = ALDH activity, ALDEFLUOR Kit with FACS in HSC-4 cells (Experimental Example 5); assay type: cell-based; settings: 50 μM dyclonine 24 hours, or DEAB, DMSO-treated cells approximately 25%
Protocol: HSC-4 cells, a sulfasalazine-resistant oral squamous carcinoma cell line, were seeded at 8×10^5 cells/dish in 10-cm cell culture dishes, and culture was started. DMEM was used as the culture medium. After 24 hours, the medium was replaced with a medium containing 50 μM dyclonine (solvent: DMSO), and the cells were cultured for another 24 hours. The cells were then collected, stained with the ALDEFLUOR Kit (STEMCELL Technologies) for ALDH activity in the presence of N,N-diethylaminobenzaldehyde (DEAB), and analyzed by FACS (“Dyclonine” in the figure). As a control, experimental results are shown for cells cultured in the absence of DEAB which were not stained with the ALDEFLUOR Kit (“Unstained” in the figure), and cells that were stained with the ALDEFLUOR Kit after replacing the medium with an equal volume of medium with DMSO and without dyclonine (“Non-treatment” in the figure). For the positive cell counts, a gate was set to gate out positive cells to almost 0% in the DMSO-treated sample stained with the ALDEFLUOR Kit in the presence of DEAB (“DEAB” in the figure), and the positive rate in each case was calculated.

[4] = system: HSC-4, a sulfasalazine-resistant oral squamous carcinoma cell line; test: Cell viability (CellTiter-Glo), sulfasalazine and dyclonine (Experimental Example 1); assay type: cell-based; settings: 48 hours
Protocol: HSC-4, a sulfasalazine-resistant oral squamous carcinoma cell line, was seeded in a 96-well plate at 2000 cells/well, and culture was started. DMEM was used as the culture medium. After 24 hours, the medium was replaced with a medium containing 50 μM dyclonine or an equal volume of DMSO, as well as 0 (not added), 50, 100, 200, or 400 μM sulfasalazine, and the culture was continued for 48 hours.

HSC-4 cells [5] = test: Dyclonine sensitivity after xCT knockdown, cell viability (Experimental Example 2); assay type: cell-based; settings: 48 hours
Protocol: HSC-4 cells, a sulfasalazine-resistant oral squamous carcinoma cell line, were seeded in a 96-well plate at 3000 cells/well, and nonsilencing control (scrambled (Sense: UUCUCCGAACGUGUCACGUtt (SEQ ID NO. 1), Antisense: ACGUGACACGUUCGGAGAAtt (SEQ ID NO. 2))) and siRNA or xCT specific siRNA (xCT siRNA #1 Sense: AGAAAUCUGGAGGUCAUUAtt (SEQ ID NO. 3), Antisense: […] (SEQ ID NO. 4), xCT siRNA #2 Sense: CCAGAACAUUACAAAUAAUtt (SEQ ID NO. 5), Antisense: AUUAUUUGUAAUGUUCUGGtt (SEQ ID NO. 6)) were lipofected using Lipofectamine RNAiMAX (Thermo Fisher Scientific), and culture was started. DMEM was used as the culture medium. After 24 hours, the medium was replaced with a medium containing 50 μM dyclonine (solvent: DMSO) or an equal volume of DMSO, and the culture was continued for 48 hours.

HSC-4 cells [6] = test: Intracellular HNE accumulation, anti-HNE fluorescent staining (Experimental Example 6); assay type: cell-based; settings: 50 μM dyclonine and/or 400 μM sulfasalazine
Protocol: as §1

[7] = system: SSZ-resistant tumor cells (HCT116 and HSC-4); test: Cell survival rate after ionizing radiation in the presence of OXY (Experimental Example 16); assay type: cell-based; settings: irradiated at 4, 6 or 10 Gy in the presence of 50 μM OXY, after 24 hours; versus irradiation or OXY alone
Protocol: (§2) In this experimental example, SSZ-resistant tumor cells (HCT116 and HSC-4) were irradiated with ionizing radiation at a dose of 4, 6, or 10 Gy using an X-ray irradiation system (Hitachi MBR-1520R-4, settings: 150 kV, 20 mA) in the presence of 50 μM oxyfedrine (OXY). In parallel, samples without OXY and ionizing radiation (0 Gy) were processed as a control. After 24 hours, cell survival rate was calculated as in Experimental Example 1. In addition, intracellular HNE was visualized as in Experimental Example 6.

[8] = system: SSZ-resistant tumor cells (HCT116 and HSC-4); test: Intracellular HNE after ionizing radiation in the presence of OXY (Experimental Example 16); assay type: cell-based; settings: irradiation and 50 μM OXY treatment in combination
Protocol: as §2

[9] = system: sulfasalazine-resistant, oral squamous carcinoma cell line HSC-2; test: In vivo tumor weight, X-irradiation and oxyfedrine (Experimental Example 19); design: species or system nude mice; settings: oxyfedrine 20-30 mg/kg intraperitoneally Days 1-7, versus non-treated group
Protocol: The mice were injected intraperitoneally with oxyfedrine (OXY) (20 mg/kg) for 3 consecutive days (Days 1-3) immediately after transplantation. On Day4, oxyfedrine (30 mg/kg) was intraperitoneally administered, and X-rays (4, 6, or 10 Gy) were irradiated to the nude mice 2 hours later. Then, after intraperitoneal administration of oxyfedrine (20 mg/kg) for 3 days (Days 5-7), tumors were collected on Day 7 and weighed. The results are shown in a bar graph in FIG. 21. The groups of nude mice on which transplantation was performed in the same way, to which oxyfedrine was administered in the same way without X-irradiation, and to which no oxyfedrine was administered with X-irradiation in the same way, were used as controls. For statistical treatment, Student's 1-test was performed between the oxyfedrine and non-treated groups for each X-ray dose, and p value of less than 0.05 was considered significant.

A549 cells [10] = test: Western blotting after Nrf2 siRNA lipofection (Experimental Example 17); assay type: cell-based; settings: 48 hours after lipofection
Protocol: Nrf2, xCT, and β-actin expressions were detected in the extracts of SSZ-resistant tumor cells (HCT116, HSC-4, and A549) via Western blotting with primary antibodies against Nrf2, xCT, and β-actin and HRP-conjugated secondary antibody. Chemiluminescence Reagent Plus (Perkin-Elmer Japan) was used for detection.
Next, siRNA against the Nrf2 gene was lipofected into A549 cells to suppress the Nrf2 gene expression. The extracts of the lipofected A549 cells were prepared after 48 hours and the expressions of Nrf2, xCT, ALDH3A1, and β-actin were examined via Western blotting in the same way as above. The following sequences (bases shown in lower case are DNA overhangs) were used as siRNA.

CCCCS(=N)(=O)CC[C@H](N)C(=O)O (stereo partly drawn) [BSO, L-buthionine-sulfoximine] was tested, and the “effect on cell survival rate” value (A549, HCT116 and HSC4) was “little effect”, the “intracellular GSH levels” value [1] was “reduced” and the “intracellular HNE levels and frequency” value [2] was “increased intracellular HNE levels were observed at a low frequency”.

Cc1ccccc1C(=O)N1CCc2cc(-c3nc(NC(=O)Cc4ccc5c(c4)OCO5)sc3C)ccc21 [ML385] was tested, and the cell survival rate (A549 cells [3]) was “effectively reduced”.

CCN(CC)c1ccc(C=O)cc1 [DEAB, N,N-diethylaminobenzaldehyde] was tested, and the “cell population with high ALDH activity” value (ALDH) was “approximately 1%”.

CCCCOc1ccc(C(=O)CCN2CCCCC2)cc1 [dyclonine] was tested, and the cell survival ([4]; 50 μM dyclonine alone, no sulfasalazine added, control (DMSO) = 100%) was 80%, the “HSC-4 cell survival rate” value (HSC-4 cells [5]; 50 μM dyclonine alone (nonsilencing control)) was “approximately 60%” and the “HSC-4 cell survival rate” value (HSC-4 cells [5]; xCT knockdown (xCT siRNA) in the presence of 50 μM dyclonine) was 10-20%. The “cell population with high ALDH activity” value (ALDH) was “approximately 1%” and the “intracellular HNE level and frequency” value (HSC-4 cells [6]) was “an increase in intracellular HNE level was observed at a low frequency”.

In the case of O=C(O)c1cc(/N=N/c2ccc(S(=O)(=O)Nc3ccccn3)cc2)ccc1O [sulfasalazine], the “effect on cell survival” value ([4]; sulfasalazine alone, 50-400 μM) is reported as “almost no effect”, the “intracellular HNE level and frequency” value (HSC-4 cells [6]) is reported as “an increase in intracellular HNE level was observed at a low frequency” and the “effect on cell survival rate” value (A549, HCT116 and HSC4) is reported as “little effect”. The “intracellular GSH levels” value [1] was “reduced” and the “intracellular HNE levels and frequency” value [2] was “increased intracellular HNE levels were observed at a low frequency”.

With oxyfedrine the cytotoxic effect (A549, HCT116 and HSC4; 50 μM oxyfedrine alone, without sulfasalazine) was “no significant cytotoxic effect”, the “intracellular GSH levels” value [1] was “did not reduce the intracellular GSH levels” and the “intracellular HNE levels and frequency” value [2] was “increased intracellular HNE levels were observed at a low frequency”. The cell survival rate [7] was “significantly and markedly reduced”, the “intracellular HNE-accumulating cells” value [8] was “high levels of intracellular HNE-accumulating cells were observed at a high frequency” and the tumor weight gain ([9]; 4 Gy X-irradiation) was “tended to be suppressed”. The tumor weight gain ([9]; 6 Gy X-irradiation) was “significantly suppressed”, the tumor weight gain ([9]; 10 Gy X-irradiation) was “significantly suppressed” and the tumor weight gain ([9]; without X-irradiation) was “tended to be suppressed”.

With “siRNA against the Nrf2 gene: siRNA against the Nrf2 gene, SEQ ID NO. 9 and 10 (chain 1 UCCUACUGUGAUGUGAAAUTT; chain 2 AUUUCACAUCACAGUAGGAGC; sugars from the 5' end r19 d2, backbone not given here)” the “expressions of xCT and ALDH3A1” value (A549 cells [10]) was “suppressed” and the cell survival rate (A549 cells [3]) was “effectively reduced”.
